Series [1] in a line: Chemical Stability Assay - Teorell-Stenhagen Buffer. The class given is physicochemical. To be noted: for Teorell-Stenhagen Buffer pH 3.5 t1/2 / Teorell-Stenhagen Buffer pH 4.5 t1/2 / Teorell-Stenhagen Buffer pH 5.5 t1/2 / Teorell-Stenhagen Buffer pH 6.5 t1/2 / Teorell-Stenhagen Buffer pH 7.5 t1/2 / Teorell-Stenhagen Buffer pH 8.5 t1/2: 10 μM, 0.5% DMSO, 20° C. As for the experimental part:
(§1) CBD methyl ether and CBD difluoromethyl ether were synthesized using a synthetic protocol described above and the identities of the desired ether products were confirmed by nuclear magnetic resonance spectroscopy as well as HPLC-MS. CBD methyl and/or CBD difluoromethyl ethers were incubated in individual eppendorf tubes in the following mediums: (a) simulated gastric fluid (SGF) with and without pepsin; (b) microsomal extract; (c) S9 fraction (hepatic); (d) Plasma; (e) Teorell-Stenhagen Buffer at pH 3.5, 4.5, 5.5, 6.5, 7.5, and 8.5; and (f) simulated intestinal fluid (SIF) with and without pancreatin. Each incubation mixture contained up to 0.5% of an organic solvent. DMSO is the organic solvent when SGF and Teorell-Stenhagen Buffer was used and acetonitrile is the organic solvent for incubation mixtures in microsomal extract, S9 fraction, and plasma. The concentration of CBD methyl and/or CBD difluoromethyl ether is 10 μM for stability studies in SGF and Teorell-Stenhagen Buffer. However, the concentration of CBD methyl and/or CBD difluoromethyl ether is 1 μM for stability studies in microsomal extract, S9 fraction, and plasma.
[…] Aliquots were taken at fixed intervals of time, typically at 0, 5, 10, 15, 30, and 45 minutes, or at fixed intervals of 1 h, 1.5 h, 2 h, 4 h, 6 h, 8 h, 24 h, and 48 hours. At each interval of time, two aliquots of each sample were collected. Each aliquot was extracted with ethyl acetate. The ethyl acetate layer was evaporated using a stream of nitrogen gas and the resulting residue was dissolved in 1:1 mixture of 0.1% aqueous HOAc and acetonitrile and analyzed by reverse-phase HPLC-MS.

Series [2] in a line: S9 Intrinsic Clearance Assay. The class given is in vitro ADME, Human. The protocol:
as §1
(§2) Stability studies were performed by incubating CBD methyl ether and/or CBD difluoromethyl ether at 37 ° C. in the desired medium. Aliquots were taken at fixed intervals of time, typically at 0, 5, 10, 15, 30, and 45 minutes, or at fixed intervals of 1 h, 1.5 h, 2 h, 4 h, 6 h, 8 h, 24 h, and 48 hours. At each interval of time, two aliquots of each sample were collected. Each aliquot was extracted with ethyl acetate. The ethyl acetate layer was evaporated using a stream of nitrogen gas and the resulting residue was dissolved in 1:1 mixture of 0.1% aqueous HOAc and acetonitrile and analyzed by reverse-phase HPLC-MS.
The stability of CBD methyl ether and CBD difluoromethyl ether in the hepatic S9 fraction is illustrated in Table 3. Both the methyl and difluoromethyl ethers were reasonably stable in S9 fraction with half-lives for de-etherification being about 5 hours for the methyl ether and about 3 hours for the difluoromethyl ether.
Intrinsic clearance (CLint) is clearance of drug by the livers if the drug is not bound to serum proteins or dependent on blood flow for delivery to the livers. Intrinsic clearance (CLint) is influenced by the affinity of the drug for its metabolizing liver enzyme and the number of enzymes present. CLint is subject to saturation and governed by Michaelis-menten (non-linear) elimination kinetics. Intrinsic clearance can be constant at low concentration, but progressively decreases as enzyme sites become saturated. Drugs with a strong affinity for their metabolizing enzymes or for which there are a large number of enzymes would be more efficiently extracted by the liver and thus, have a high extraction ratio (EH).
The hepatic extraction ratio EH is a good measure of expected first-pass metabolic clearance from liver (typical first pass after oral administration). The hepatic extraction ratio (Eh) is represented as follows:
Hepatic clearance (CLH) is the volume of blood that is cleared of drug per unit time by the liver, and QH is the rate of blood flow to the liver.
The hepatic extraction ratio EH is particularly useful for separating compounds into low/medium/high metabolic stability categories. Unlike in vitro intrinsic microsomal clearance (CLint), EH is species-nonspecific, because in its calculation species differences like liver weight, body weight, liver blood flow, etc. are normalized out, so EH values can be directly compared across species.

The nature of series [3]: Microsomal Intrinsic Clearance Assay. The class given is in vitro ADME, Human. The protocol:
as §1, §2
In vitro intrinsic microsomal clearance studies were performed to understand the metabolic fate of CBD ethers, as well as to identify metabolites produced by the degradation of the inventive CBD ethers.
The liver is the most important site of drug metabolism in the body. Approximately 60% of marketed compounds are cleared by hepatic CYP-mediated metabolism. See Drug Aletab. Dispos., 27(11) (1999) 1350. Liver microsomes are a subcellular fraction of hepatocytes, and they contain membrane bound drug metabolizing enzymes, Microsomes can be used to determine the in vitro intrinsic clearance of a compound. The use of species-specific microsomes can be used to enable an understanding of interspecies differences in drug metabolism.

Another series can be described thus: Plasma Stability Assay. The class given is in vitro ADME. To be noted: 1 μM, 37 ° C. As for the experimental part:
as §1, with “The concentration of CBD methyl and/or CBD difluoromethyl ether is 10 μM for stability studies in SGF and Teorell-Stenhagen Buffer. However, the concentration of CBD methyl and/or CBD difluoromethyl ether is 1 μM for stability studies in microsomal extract, S9 fraction, and plasma.” left out
Stability studies were performed by incubating CBD methyl ether and/or CBD difluoromethyl ether at 37 ° C. in the desired medium. […] The ethyl acetate layer was evaporated using a stream of nitrogen gas and the resulting residue was dissolved in 1:1 mixture of 0.1% aqueous HOAc and acetonitrile and analyzed by reverse-phase HPLC-MS.
The methyl and difluoromethyl ethers of CBD were stable to degradation in plasma. The half-life of degradation as measured by LC-MS for both ethers was greater than 400 minutes.

The next series is described as follows: Solubility Assay - PBS. The class given is physicochemical. To be noted: for solubility in phosphate buffered saline / Solubility (μM) in PBS 7.4: PBS pH 7.4; for Solubility (μM) in PBS 7.4 / Solubility (μM) in T-S 7.5: λ 280 nm; for Solubility (μM) in T-S 7.5: Teorell-Stenhagen buffer pH 7.5.
Series [4] in a line: Stability in simulated gastric fluid (SGF) with and without pepsin and simulated intestinal fluid (SIF) with and without pancreatin. To be noted: for SGF t1/2: SGF with pepsin; for SGF t1/2 / SGF No Pepsin t1/2: pH 1.2; for SGF t1/2 / SGF No Pepsin t1/2 / SIF t1/2 / SIF No Pancreatin t1/2: 10 μM, 0.5% DMSO, 37° C.; for SGF No Pepsin t1/2: SGF without pepsin; for SIF t1/2: SIF with pancreatin; for SIF t1/2 / SIF No Pancreatin t1/2: pH 6.8; for SIF No Pancreatin t1/2: SIF without pancreatin.

The conditions of series [5]: pediatric epilepsy patients receiving CBD orally; cited from earlier work.
Setting [6] is: 1 μM, protein 1.25 mg/mL, pH 7.4, 37° C.
The mark [7] stands for this setting: 1 μM, protein 1.25 mg/mL, pH 7.4, 37° C, NADPH, UDPGA, PAPS.
[8] abbreviates: 1 μM, microsomal protein 1 mg/mL, pH 7.4, 37° C.

In brackets after ≈: the same amount, converted by molar mass.

Turning to `C=C(C)[C@@H]1CCC(C)=C[C@H]1c1c(O)cc(CCCCC)cc1OC` [CBD Methyl Ether, CBD methyl ether], the “half-life of de-etherification in buffers at different pH's” value in series [1] (Teorell-Stenhagen buffer pH 3.5-8.5) is listed as “greater than 72 hours”. For the same molecule, in series [1], the “Teorell-Stenhagen Buffer pH 3.5 t1/2” value is recorded as over 72 h, the “Teorell-Stenhagen Buffer pH 4.5 t1/2” value is on record as over 72 h, the “Teorell-Stenhagen Buffer pH 5.5 t1/2” value was over 72 h and the “Teorell-Stenhagen Buffer pH 6.5 t1/2” value is over 72 h. In series [1], the “Teorell-Stenhagen Buffer pH 7.5 t1/2” value is over 72 h and the “Teorell-Stenhagen Buffer pH 8.5 t1/2” value is over 72 h. Moreover, the “Human S9 EH (hepatic extraction ratio)” value in series [2] (setting [6]) was 21%. Moreover, in series [2] (setting [7]), the “Human S9 CLint” value is 1.9 µL/min/mg and the “Human S9 t1/2” value amounted to 4.77 h. Further, the “half-life for de-etherification in S9 fraction” value in series [2] (hepatic S9 fraction) was “about 5 hours”. Also, in series [3] (setting [8]), the “HLM CLint” value came out at 8.7 µL/min/mg, the “HLM EH (hepatic extraction ratio)” value came out at 26% and the “HLM t1/2” value turned out to be 1.33 h. Moreover, the “stability in liver microsome extract” value in series [3] was “relatively stable”. The “Plasma stability Human t1/2” value in “Plasma Stability Assay” was over 6.67 h. In addition, in “Solubility Assay - PBS”, the “solubility in phosphate buffered saline” value is “good solubility”, the “Solubility (μM) in PBS 7.4” value came out at 8.4 µM (≈ 2.76 µg/mL) and the “Solubility (μM) in T-S 7.5” value worked out at 22 µM (≈ 7.23 µg/mL). Moreover, in series [4], the “SGF t1/2” value was over 6.67 h, the “SGF No Pepsin t1/2” value is over 6.67 h, the “SIF t1/2” value was over 6.67 h and the “SIF No Pancreatin t1/2” value is over 6.67 h.
On to `C=C(C)[C@@H]1CCC(C)=C[C@H]1c1c(O)cc(CCCCC)cc1O` [CBD, cannabidiol, reference compound], for which, in series [5], the patients showing somnolence result is given as “greater than 44%”. For the same molecule, the “CBD cyclized to mixture of Δ8-THC and Δ9-THC” value in series [4] (in about 60 minutes, comparison in the SGF/SIF stability study) was “greater than 85%”.
For `C[C@]12CC[C@H]3[C@@H](CCC4=CC(=O)CC[C@@]43C)[C@@H]1CC[C@@H]2O` [Testosterone, testosterone, reference compound], in series [2] (setting [6]), the “Human S9 EH (hepatic extraction ratio)” value is given as 87%. Also, the microsomal CLint at 1 μM in series [2] (human, hepatic S9 fraction, 1 μM, protein 1.25 mg/mL, pH 7.4, 37° C, NADPH, UDPGA, PAPS) was 47 µL/min/mg; in series [3] (human, liver microsomes, 1 μM, microsomal protein 1 mg/mL, pH 7.4, 37° C., read-out: HLM CLint) it was 69 µL/min/mg. Further, the half-life at 1 μM turned out to be 0.483 h in series [2] (human, hepatic S9 fraction, 1 μM, protein 1.25 mg/mL, pH 7.4, 37° C, NADPH, UDPGA, PAPS, read-out: Human S9 t1/2) and 0.167 h in series [3] (human, liver microsomes, 1 μM, microsomal protein 1 mg/mL, pH 7.4, 37° C., read-out: HLM t1/2). For the same molecule, the half-life in series [2] (human, hepatic S9 fraction, read-out: half-life of degradation in S9 fraction) was about 0.483 h. For the same molecule, the “HLM EH (hepatic extraction ratio)” value in series [3] (setting [8]) was determined as 73%.
For the molecule CBD difluoromethyl ether, in series [1], the “Teorell-Stenhagen Buffer pH 3.5 t1/2” value is 10 h, the “Teorell-Stenhagen Buffer pH 4.5 t1/2” value is 14 h, the “Teorell-Stenhagen Buffer pH 5.5 t1/2” value is 11 h and the “Teorell-Stenhagen Buffer pH 6.5 t1/2” value was found to be 11 h. Besides, in series [1], the “Teorell-Stenhagen Buffer pH 7.5 t1/2” value was found to be 11 h and the “Teorell-Stenhagen Buffer pH 8.5 t1/2” value stood at 8 h. For the same molecule, the “Human S9 EH (hepatic extraction ratio)” value in series [2] (setting [6]) was 31%. In addition, in series [2] (setting [7]), the “Human S9 CLint” value was found to be 3.2 µL/min/mg and the “Human S9 t1/2” value was determined as 2.88 h. For the same molecule, the “half-life for de-etherification in S9 fraction” value in series [2] (hepatic S9 fraction) is “about 3 hours”. Moreover, in series [3] (setting [8]), the “HLM CLint” value amounted to 9.0 µL/min/mg, the “HLM EH (hepatic extraction ratio)” value stood at 26% and the “HLM t1/2” value stood at 1.28 h. In series [3], the “stability in liver microsome extract” value is on record as “relatively stable”. Moreover, the “Plasma stability Human t1/2” value in the series “Plasma Stability Assay” was over 6.67 h. Further, in “Solubility Assay - PBS”, the “solubility in phosphate buffered saline” value is “good solubility”, the “Solubility (μM) in PBS 7.4” value is 7.0 µM and the “Solubility (μM) in T-S 7.5” value is 9.7 µM. Also, in series [4], the “SGF t1/2” value was over 6.67 h, the “SGF No Pepsin t1/2” value was over 6.67 h, the “SIF t1/2” value is over 6.67 h and the “SIF No Pancreatin t1/2” value was over 6.67 h.

Source of the values: patent publication US20190345087A1, “BIO-STABLE C[…] AND METHODS FOR ENHANCING THEIR PHYSIOLOGICAL CONCENTRATION” (Teewinot Technologies Limited, priority 2016, published 2019).
